# Legend:
# [1] = system: Mycobacterium tuberculosis; assay: Antitubercular activity against Mycobacterium tuberculosis H37Rv ATCC 27294 after 7 days by microplate alamar blue assay; assay type: functional; conditions: H37Rv ATCC 27294, 168 h
# [2] = system: UO-31; assay: Cytotoxicity against human UO31 cells; assay type: functional; conditions: read-out: LC50 (the source's name)
# [3] = Cytotoxicity against human Hs 578T cells; assay type: functional
# [4] = system: HCT-116; assay: Cytotoxicity against human HCT116 cells; assay type: functional
# [5] = system: OVCAR-5; assay: Cytotoxicity against human OVCAR5 cells; assay type: functional
# [6] = system: A498; assay: Cytotoxicity against human A498 cells; assay type: functional
# [7] = system: NCI/ADR-RES; assay: Cytotoxicity against human NCI/ADR-RES cells; assay type: functional
# [8] = Cytotoxicity against human […] cells; assay type: functional
# [9] = system: ACHN; assay: Cytotoxicity against human ACHN cells; assay type: functional
# [10] = system: MDA-MB-468; assay: Cytotoxicity against human MDA-MB-468 cells; assay type: functional
# [11] = system: SK-OV-3; assay: Cytotoxicity against human SKOV3 cells; assay type: functional
# [12] = system: Malme-3M; assay: Cytotoxicity against human MALME-3M cells; assay type: functional
# [13] = system: CCRF-CEM; assay: Cytotoxicity against human CCRF-CEM cells; assay type: functional
# [14] = system: MDA-MB-231; assay: Cytotoxicity against human MDA-MB-231 cells; assay type: functional
# [15] = system: SK-MEL-5; assay: Cytotoxicity against human SK-MEL-5 cells; assay type: functional
# [16] = system: IGROV-1; assay: Cytotoxicity against human IGROV1 cells; assay type: functional
# [17] = system: SR; assay: Cytotoxicity against human SR cells; assay type: functional
# [18] = system: SK-MEL-28; assay: Cytotoxicity against human SK-MEL-28 cells; assay type: functional
# [19] = system: HOP-62; assay: Cytotoxicity against human HOP62 cells; assay type: functional
# [20] = system: TK-10; assay: Cytotoxicity against human TK10 cells; assay type: functional
# [21] = system: U-251; assay: Cytotoxicity against human U251 cells; assay type: functional
# [22] = system: HCC 2998; assay: Cytotoxicity against human HCC2998 cells; assay type: functional
# [23] = system: SNB-75; assay: Cytotoxicity against human SNB75 cells; assay type: functional
# [24] = system: UACC-62; assay: Cytotoxicity against human UACC62 cells; assay type: functional
# [25] = system: SNB-19; assay: Cytotoxicity against human SNB19 cells; assay type: functional
# [26] = system: HT-29; assay: Cytotoxicity against human HT-29 cells; assay type: functional
# [27] = system: SK-MEL-2; assay: Cytotoxicity against human SK-MEL-2 cells; assay type: functional
# [28] = system: SF-539; assay: Cytotoxicity against human SF539 cells; assay type: functional
# [29] = system: BT-549; assay: Cytotoxicity against human BT549 cells; assay type: functional
# [30] = system: Trypanosoma cruzi; assay: Antitrypanosomal activity against Trypanosoma cruzi tulahuen C4 trypomastigotes infected in african green monkey Vero cells assessed as CPRG cleavage after 120 hrs by microplate reader; assay type: functional, organism-based
# [31] = system: Leishmania braziliensis; assay: Antileishmanial activity against Leishmania braziliensis MHOM/PE/PER006 promastigote infected BALB/c mouse macrophages after 48 hrs by Giemsa staining method; assay type: functional, organism-based; conditions: MHOM/PE/PER006, 48 h
# [32] = system: A549; assay: Cytotoxicity against human A549 cells; assay type: functional
# [33] = system: Leishmania amazonensis; assay: Antileishmanial activity against Leishmania amazonensis Lma CL1 amastigotes infected BALB/c mouse macrophages after 48 hrs by Giemsa staining method; assay type: functional, organism-based; conditions: Lma CL1, 48 h
# [34] = system: LOX IMVI; assay: Cytotoxicity against human LOXIMVI cells; assay type: functional
# [35] = system: COLO 205; assay: Cytotoxicity against human COLO205 cells; assay type: functional
# [36] = system: 786-0; assay: Cytotoxicity against human 786-0 cells; assay type: functional
# [37] = system: NCI-H522; assay: Cytotoxicity against human NCI-H522 cells; assay type: functional
# [38] = system: CAKI-1; assay: Cytotoxicity against human Caki1 cells; assay type: functional
# [39] = system: NCI-H226; assay: Cytotoxicity against human NCI-H226 cells; assay type: functional
# [40] = system: RXF 393; assay: Cytotoxicity against human RXF393 cells; assay type: functional
# [41] = system: KM12; assay: Cytotoxicity against human KM12 cells; assay type: functional
# [42] = Selectivity index, ratio of IC50 for BALB/c mouse macrophages to IC50 for Leishmania amazonensis MHOM/BR/76/LTB-012
# [43] = system: OVCAR-3; assay: Cytotoxicity against human OVCAR-3 cells; assay type: functional
# [44] = system: Vero; assay: Cytotoxicity against african green monkey Vero cells after 72 hrs by MTS assay; conditions: Chlorocebus sabaeus, Vero, 72 h
# [45] = Cytotoxicity against BALB mouse 3T3 cells; assay type: cell-based; conditions: BALB 3T3 cells
# [46] = read-out: LC50 (the source's name)
smiles,measurement,setting,value
C(=N\Nc1ncnc2sc3c(c12)CCCC3)/c1ccccn1,MIC,[1],145 µM
same,CC50,[2],63 µM
same,GI50,[3],0.748 µM
same,TGI,[3],23.9 µM
same,CC50,[3]; [46],> 100 µM
same,GI50,[4],0.166 µM
same,TGI,[4],14.2 µM
same,CC50,[4]; [46],67.4 µM
same,GI50,[5],0.823 µM
same,TGI,[5],31.4 µM
same,CC50,[5]; [46],> 0.1 µM
same,GI50,[6],0.428 µM
same,TGI,[6],8.81 µM
same,CC50,[6]; [46],37.2 µM
same,GI50,[7],0.427 µM
same,TGI,[7],58.1 µM
same,CC50,[7]; [46],> 0.1 µM
same,GI50,[8],0.35 µM
same,TGI,[8],12.5 µM
same,CC50,[8]; [46],> 100 µM
same,GI50,[9],0.313 µM
same,TGI,[9],11 µM
same,CC50,[9]; [46],> 100 µM
same,GI50,[10],0.2 µM
same,TGI,[10],0.505 µM
same,CC50,[10]; [46],41 µM
same,GI50,[11],0.41 µM
same,TGI,[11],29.2 µM
same,CC50,[11]; [46],> 0.1 µM
same,GI50,[12],0.275 µM
same,TGI,[12],10.3 µM
same,CC50,[12]; [46],51.4 µM
same,GI50,[13],0.242 µM
same,TGI,[13],0.769 µM
same,CC50,[13]; [46],> 100 µM
same,GI50,[14],0.603 µM
same,TGI,[14],29.7 µM
same,CC50,[14]; [46],> 100 µM
same,GI50,[15],0.332 µM
same,TGI,[15],1.72 µM
same,CC50,[15]; [46],23.6 µM
same,GI50,[16],0.45 µM
same,TGI,[16],28.9 µM
same,CC50,[16]; [46],> 100 µM
same,GI50,[17],0.368 µM
same,TGI,[17],0.953 µM
same,CC50,[17]; [46],> 100 µM
same,GI50,[18],0.422 µM
same,TGI,[18],16.7 µM
same,CC50,[18]; [46],54.6 µM
same,GI50,[19],0.395 µM
same,TGI,[19],17.7 µM
same,CC50,[19]; [46],> 100 µM
same,GI50,[20],0.486 µM
same,TGI,[20],56.6 µM
same,CC50,[20]; [46],> 100 µM
same,GI50,[21],0.369 µM
same,TGI,[21],12.1 µM
same,CC50,[21]; [46],34.8 µM
same,GI50,[22],10 µM
same,TGI,[22],22.9 µM
same,CC50,[22]; [46],52.6 µM
same,GI50,[23],0.585 µM
same,TGI,[23],14.7 µM
same,CC50,[23]; [46],49.3 µM
same,GI50,[24],0.379 µM
same,TGI,[24],6.54 µM
same,CC50,[24]; [46],48.4 µM
same,GI50,[25],0.767 µM
same,TGI,[25],34.1 µM
same,CC50,[25]; [46],> 100 µM
same,GI50,[26],0.1 µM
same,"LC50 (lethal concentration, 50% cell kill)",[26],44.9 µM
same,TGI,[26],15.1 µM
same,GI50,[27],7.51 µM
same,TGI,[27],25.5 µM
same,CC50,[27]; [46],67.8 µM
same,GI50,[28],0.391 µM
same,TGI,[28],0.384 µM
same,CC50,[28]; [46],29.2 µM
same,GI50,[29],0.394 µM
same,TGI,[29],28.7 µM
same,CC50,[29]; [46],> 100 µM
same,IC50,[30],3.9 µM
same,IC50,[31],0.6 µM
same,GI50,[32],0.389 µM
same,TGI,[32],14.9 µM
same,CC50,[32]; [46],70 µM
same,IC50,[33],> 2 µM
same,GI50,[34],0.256 µM
same,CC50,[34]; [46],34.8 µM
same,GI50,[35],0.315 µM
same,TGI,[35],14.7 µM
same,CC50,[35]; [46],54.5 µM
same,GI50,[36],0.333 µM
same,TGI,[36],0.947 µM
same,CC50,[36]; [46],44.4 µM
same,GI50,[37],0.419 µM
same,TGI,[37],23.2 µM
same,CC50,[37]; [46],> 100 µM
same,GI50,[38],0.313 µM
same,TGI,[38],14.8 µM
same,CC50,[38]; [46],> 100 µM
same,GI50,[39],0.385 µM
same,TGI,[39],16.2 µM
same,CC50,[39]; [46],> 100 µM
same,GI50,[40],0.423 µM
same,TGI,[40],10.6 µM
same,CC50,[40]; [46],45.3 µM
same,GI50,[41],0.515 µM
same,TGI,[41],12.7 µM
same,CC50,[41]; [46],38 µM
same,Ratio IC50,[42],13
same,GI50,[43],0.109 µM
same,TGI,[43],14.5 µM
same,CC50,[43]; [46],43.9 µM
same,IC50,[44],< 0.3 µM
same,GI50,[45],0.04 µM
